Molecules are shown by their SMILES.

For 14 compounds, Ki, GI50 and remaining activity results are on record in patent publication USRE49850E1, “N-(pyridin-2-yl)-4-(thiazol-5-yl)pyrimidin-2-amine derivatives as therapeutic compounds” (AUCENTRA THERAPEUTICS PTY LTD, priority 2015, dated 2024).

For assay [1], the target named is CDK1B (Homo sapiens, UniProt P06493). Kind of assay: Kinase assay CDK1B (radiometric profiling service). The assay is classed as biochemical. The settings on record: for Ki: apparent Ki calculated from Km (ATP) and IC50, read-out: CDK inhibition Ki CDK1B; for remaining activity at 10 µM: compound at 10 μM, read-out: % remaining enzymatic activity at 10 μM CDK1B. The protocol:
(§1) Eurofins Pharma Discovery or Reaction Biology Corporation Kinase Profiler services were used to measure inhibition of CDKs and other kinases by radiometric assay. Inhibition of CDK4/D1, CDK6/D3 and CDK9/T1 were also determined in-house using ADP Glo Kinase assays (Promega Corporation, Madison, USA). Briefly, the kinase reaction for CDK4/D1 and CDK6/D3 was performed with kinase reaction buffer ([…] Tris base pH 7.5, 20 mM MgCl2, 0.4 mM DTT), 0.1 mg/ml BSA and RB-CTF substrate (retinoblastoma protein1 C-terminal fraction). For CDK9/CyclinT1, the kinase reaction was performed with standard assay buffer and Kinase Dilution Buffer and RBER-IRStide substrate. Serial dilutions of 1:3 were prepared for test compounds for 10 concentrations (from 10 μM to 0.5 nM). The kinase reactions were started by addition of ATP, incubated for 40 min at 37° C. and then stopped by adding 10 μL of ADP Glo reagent. After incubation at room temperature in the dark for 40 min, 20 μL of kinase detection reagent was added per well and incubated for 40 min. Luminescence was measured using an EnVision Multilabel plate reader (PerkinElmer, Buckinghamshire, UK). Positive and negative controls were perfonned in the presence and absence of CDK kinases, respectively. Half-maximal inhibition (IC50) values were calculated using a 4-parameter logistic non-linear regression model with Graphpad prism (Version 6.0). Apparent inhibition constants (Ki) values were calculated from Km (ATP) and IC50 values for the respective kinases.

Assay [2] concerns the target CDK 2A (Homo sapiens, UniProt P24941). In words: Kinase assay CDK2A (radiometric profiling service). The assay is classed as biochemical. The settings on record: for Ki: apparent Ki calculated from Km (ATP) and IC50, read-out: CDK inhibition Ki CDK 2A; for remaining activity at 10 µM: compound at 10 μM, read-out: % remaining enzymatic activity at 10 μM CDK 2A. The protocol: as §1

Assay [3] has as its target T1, CDK4D1 (Homo sapiens, UniProt P11802).
T1 construct: purchased Eurofins Pharma Discovery or Reaction Biology Corporation (service)
Kind of assay: Kinase assay CDK4/D1 (radiometric or ADP Glo). It is filed as biochemical. The settings on record: apparent Ki calculated from Km (ATP) and IC50; read-out: CDK inhibition Ki CDK4D1. The protocol:
as §1

The target of assay [4] is T2, CDK6D3 (Homo sapiens, UniProt Q00534).
T2 construct: purchased Eurofins Pharma Discovery or Reaction Biology Corporation (service)
Kind of assay: Kinase assay CDK6/D3 (radiometric or ADP Glo). The assay is classed as biochemical. The settings on record: apparent Ki calculated from Km (ATP) and IC50; read-out: CDK inhibition Ki CDK6D3. On the procedure: as §1

Assay [5] has as its target CDK7H (Homo sapiens, UniProt P50613). In words: Kinase assay CDK7H (radiometric profiling service). It is filed as biochemical. As to conditions: for Ki: apparent Ki calculated from Km (ATP) and IC50, read-out: CDK inhibition Ki CDK7H; for remaining activity at 10 µM: compound at 10 μM, read-out: % remaining enzymatic activity at 10 μM CDK7H. On the procedure: as §1
The target of assay [6] is T3, CDK9T1 (Homo sapiens, UniProt P50750).
T3 construct: purchased Eurofins Pharma Discovery or Reaction Biology Corporation (service)
Kind of assay: Kinase assay CDK9/T1 (radiometric or ADP Glo). It is filed as biochemical. The settings on record: for Ki: apparent Ki calculated from Km (ATP) and IC50, read-out: CDK inhibition Ki CDK9T1; for remaining activity at 10 µM: compound at 10 μM, read-out: % remaining enzymatic activity at 10 μM CDK9T1. On the procedure: as §1

The subject of assay [7] is MV4-11. In words: Cell viability assay (resazurin, leukemia cell line) MV4-11. As to conditions: Homo sapiens, MV4-11, 72 h; read-out: Anti-proliferative activity GI50 MV4-11. It is filed as cell-based, human. An excerpt: (§2) Compounds from Example 1 were subjected to a standard MTT (3-(4,5-dimethylthiazol-2-yl)-2,5-diphenyltetrazolium bromide) and resazurin assays on solid tumour cell lines and leukemia cell lines, respectively, as previously reported (Wang S et al., J Med Chem 47:1662-1675, 2004 and Diab S. et al. CheMedChem 9:962-972, 2014).

The test system of assay [8] is MDA-MB-453. Kind of assay: Cell viability assay (MTT, solid tumour cell line) MDA-MB-453. The settings on record: Homo sapiens, MDA-MB-453, 72 h; read-out: Anti-proliferative activity GI50 MDA-MB-453. The assay is classed as cell-based, human.
From the text: as §2

T2 sequence (Q00534 whole entry): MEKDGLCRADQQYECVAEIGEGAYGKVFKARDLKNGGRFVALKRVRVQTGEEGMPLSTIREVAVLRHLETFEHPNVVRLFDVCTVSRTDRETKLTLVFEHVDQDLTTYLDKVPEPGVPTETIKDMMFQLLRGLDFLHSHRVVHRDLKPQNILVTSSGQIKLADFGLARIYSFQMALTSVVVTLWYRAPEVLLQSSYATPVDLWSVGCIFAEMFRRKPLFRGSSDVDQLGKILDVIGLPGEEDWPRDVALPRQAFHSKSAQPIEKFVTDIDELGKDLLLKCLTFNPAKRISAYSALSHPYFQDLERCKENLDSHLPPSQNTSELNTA
T2 sequence (P30281 whole entry partner): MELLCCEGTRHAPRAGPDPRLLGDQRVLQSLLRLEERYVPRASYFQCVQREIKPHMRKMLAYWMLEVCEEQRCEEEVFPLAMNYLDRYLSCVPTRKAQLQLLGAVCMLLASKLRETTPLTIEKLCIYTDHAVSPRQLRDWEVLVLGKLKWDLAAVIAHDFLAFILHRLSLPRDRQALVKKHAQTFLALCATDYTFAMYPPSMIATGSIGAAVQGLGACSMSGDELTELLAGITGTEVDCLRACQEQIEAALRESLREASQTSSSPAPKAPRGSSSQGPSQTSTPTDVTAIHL
CDK1B, sequence (P06493 whole entry): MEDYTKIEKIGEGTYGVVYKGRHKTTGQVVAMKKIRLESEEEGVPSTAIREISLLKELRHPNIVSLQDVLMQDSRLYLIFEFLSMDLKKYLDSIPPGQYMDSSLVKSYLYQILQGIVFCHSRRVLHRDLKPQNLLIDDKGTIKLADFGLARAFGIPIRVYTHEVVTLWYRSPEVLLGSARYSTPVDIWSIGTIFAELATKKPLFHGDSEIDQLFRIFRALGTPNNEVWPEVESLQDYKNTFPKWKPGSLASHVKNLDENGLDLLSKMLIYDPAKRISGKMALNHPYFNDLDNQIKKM
CDK1B, sequence (P14635 whole entry partner): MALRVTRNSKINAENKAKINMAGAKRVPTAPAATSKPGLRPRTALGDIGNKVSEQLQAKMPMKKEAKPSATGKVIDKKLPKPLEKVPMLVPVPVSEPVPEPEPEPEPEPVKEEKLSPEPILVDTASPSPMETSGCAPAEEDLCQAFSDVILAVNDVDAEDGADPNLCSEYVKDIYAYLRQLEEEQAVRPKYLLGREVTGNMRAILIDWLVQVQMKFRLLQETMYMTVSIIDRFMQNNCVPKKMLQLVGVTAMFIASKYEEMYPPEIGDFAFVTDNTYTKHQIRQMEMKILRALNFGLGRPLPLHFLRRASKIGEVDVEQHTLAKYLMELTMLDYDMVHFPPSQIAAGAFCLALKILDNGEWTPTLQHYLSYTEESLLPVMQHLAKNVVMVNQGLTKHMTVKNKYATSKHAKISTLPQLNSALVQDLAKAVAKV
T3 sequence (P50750 whole entry): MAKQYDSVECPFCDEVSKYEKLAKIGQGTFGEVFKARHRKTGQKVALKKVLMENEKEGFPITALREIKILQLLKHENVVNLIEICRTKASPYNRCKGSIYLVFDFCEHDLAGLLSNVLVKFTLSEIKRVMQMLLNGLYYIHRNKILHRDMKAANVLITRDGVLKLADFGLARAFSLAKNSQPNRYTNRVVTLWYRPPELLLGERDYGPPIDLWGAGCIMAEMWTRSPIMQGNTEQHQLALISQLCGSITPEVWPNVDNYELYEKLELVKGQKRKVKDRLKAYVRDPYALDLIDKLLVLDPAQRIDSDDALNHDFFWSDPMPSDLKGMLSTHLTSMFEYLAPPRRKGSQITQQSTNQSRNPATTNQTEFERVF
T3 sequence (O60563 whole entry partner): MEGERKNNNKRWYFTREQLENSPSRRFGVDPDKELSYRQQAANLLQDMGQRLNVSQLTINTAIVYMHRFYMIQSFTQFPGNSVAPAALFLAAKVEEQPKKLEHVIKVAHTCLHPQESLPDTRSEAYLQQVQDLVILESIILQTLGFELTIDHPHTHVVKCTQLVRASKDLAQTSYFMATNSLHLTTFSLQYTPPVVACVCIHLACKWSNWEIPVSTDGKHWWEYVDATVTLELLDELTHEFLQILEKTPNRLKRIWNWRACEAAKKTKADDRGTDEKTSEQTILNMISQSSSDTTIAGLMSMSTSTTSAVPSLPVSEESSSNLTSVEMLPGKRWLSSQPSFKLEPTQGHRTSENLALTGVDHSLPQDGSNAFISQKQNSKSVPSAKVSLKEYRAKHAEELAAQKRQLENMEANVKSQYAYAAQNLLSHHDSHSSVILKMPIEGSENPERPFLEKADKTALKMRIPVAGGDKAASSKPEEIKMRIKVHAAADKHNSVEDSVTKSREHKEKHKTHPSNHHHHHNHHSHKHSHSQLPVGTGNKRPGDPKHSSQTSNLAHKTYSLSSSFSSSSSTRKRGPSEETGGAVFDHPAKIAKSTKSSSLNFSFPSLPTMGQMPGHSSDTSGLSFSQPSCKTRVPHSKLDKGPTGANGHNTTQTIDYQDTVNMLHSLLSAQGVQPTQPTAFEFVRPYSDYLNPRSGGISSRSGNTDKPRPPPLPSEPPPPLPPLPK
CDK7H, sequence (P50613 whole entry): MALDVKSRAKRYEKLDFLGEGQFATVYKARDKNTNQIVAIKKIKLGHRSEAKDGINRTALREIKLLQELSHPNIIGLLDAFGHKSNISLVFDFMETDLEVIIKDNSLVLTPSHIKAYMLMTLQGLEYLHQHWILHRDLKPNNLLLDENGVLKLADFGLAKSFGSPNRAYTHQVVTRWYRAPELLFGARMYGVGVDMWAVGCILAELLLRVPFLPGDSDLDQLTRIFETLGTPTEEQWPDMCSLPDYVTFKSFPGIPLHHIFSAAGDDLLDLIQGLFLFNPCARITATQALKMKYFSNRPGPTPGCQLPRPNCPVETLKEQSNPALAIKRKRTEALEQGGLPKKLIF
CDK7H, sequence (P51946 whole entry partner): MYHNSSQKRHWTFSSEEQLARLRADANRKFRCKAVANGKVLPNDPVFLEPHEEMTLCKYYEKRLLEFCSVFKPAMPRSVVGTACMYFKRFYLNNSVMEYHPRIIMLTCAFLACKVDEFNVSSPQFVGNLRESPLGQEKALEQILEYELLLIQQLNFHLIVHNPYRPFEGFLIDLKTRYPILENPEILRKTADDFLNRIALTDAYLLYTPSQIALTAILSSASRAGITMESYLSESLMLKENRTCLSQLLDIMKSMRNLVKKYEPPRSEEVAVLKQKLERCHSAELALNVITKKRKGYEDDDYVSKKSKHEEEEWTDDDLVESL
CDK7H, sequence (P51948 whole entry partner): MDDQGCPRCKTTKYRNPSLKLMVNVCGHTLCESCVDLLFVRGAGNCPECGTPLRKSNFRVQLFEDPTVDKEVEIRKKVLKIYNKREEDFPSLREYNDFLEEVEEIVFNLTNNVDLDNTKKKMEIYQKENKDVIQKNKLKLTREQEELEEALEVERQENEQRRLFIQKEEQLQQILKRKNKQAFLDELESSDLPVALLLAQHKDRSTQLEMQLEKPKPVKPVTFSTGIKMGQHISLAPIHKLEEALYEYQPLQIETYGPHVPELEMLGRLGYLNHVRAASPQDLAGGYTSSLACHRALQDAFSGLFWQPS
T1 sequence (P11802 whole entry): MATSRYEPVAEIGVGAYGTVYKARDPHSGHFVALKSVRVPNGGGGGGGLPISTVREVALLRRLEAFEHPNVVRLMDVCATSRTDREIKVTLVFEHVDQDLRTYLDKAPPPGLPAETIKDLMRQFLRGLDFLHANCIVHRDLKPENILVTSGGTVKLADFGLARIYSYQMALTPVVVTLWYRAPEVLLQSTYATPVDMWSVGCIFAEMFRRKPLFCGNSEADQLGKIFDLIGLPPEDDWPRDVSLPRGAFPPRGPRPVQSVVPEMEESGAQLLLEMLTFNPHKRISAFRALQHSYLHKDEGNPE
T1 sequence (P24385 whole entry partner): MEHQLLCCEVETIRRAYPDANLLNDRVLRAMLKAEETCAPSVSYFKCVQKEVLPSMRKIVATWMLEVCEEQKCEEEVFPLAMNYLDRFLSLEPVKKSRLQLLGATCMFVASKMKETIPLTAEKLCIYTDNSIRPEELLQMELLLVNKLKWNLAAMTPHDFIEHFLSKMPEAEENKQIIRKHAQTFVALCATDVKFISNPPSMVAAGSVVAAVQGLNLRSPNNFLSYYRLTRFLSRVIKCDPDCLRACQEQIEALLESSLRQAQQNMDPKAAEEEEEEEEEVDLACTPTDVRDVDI

Broadly, the GI50 is the concentration giving 50% growth inhibition. Take `CCN1CCN(c2ccc(Nc3nccc(-c4sc(C(C)C)nc4C)n3)nc2)CC1` [Compound 15, N-(5-(4-ethylpiperazin-1-yl)pyridin-2-yl)-4-(2-isopropyl-4-methylthiazol-5-yl)pyrimidin-2-amine]: the Ki was 3100 nM in assay [1]; 465 nM in assay [2]; 5 nM in assay [3]; 25 nM in assay [4]; more than 5000 nM in assay [5]; more than 5000 nM in assay [6]. Further, the GI50 is 63 ± 26 nM in assay [7] and 542 ± 65 nM in assay [8].
In the case of `CC(=O)N1CCN(c2ccc(Nc3nccc(-c4sc(N(C)C)nc4C)n3)nc2)CC1` [Compound 48, 1-(4-(6-((4-(2-(dimethylamino)-4-methylthiazol-5-yl)pyrimidin-2-yl)amino)pyridin-3-yl)piperazin-1-yl)ethan-1-one], the Ki in assay [1] is more than 5000 nM; in assay [2] it was 976 nM; in assay [3] it was 87 nM; in assay [4] it was 234 nM; in assay [5], more than 5000 nM; in assay [6], more than 5000 nM. Further, the GI50 in assay [7] was 537 ± 133 nM; in assay [8], 4720 ± 715 nM.
In the case of `CCN1CCN(Cc2ccc(Nc3ncc(F)c(-c4sc(NC5CCCC5)nc4C)n3)nc2)CC1` [Compound 84, N-cyclopentyl-5-(2-((5-((4-ethylpiperazin-1-yl)methyl)pyridin-2-yl)amino)-5-fluoropyrimidin-4-yl)-4-methylthiazol-2-amine], the Ki in assay [1] was more than 5000 nM; in assay [3], 3 nM; in assay [4], 14 nM; in assay [5], 630 nM; in assay [6], 3570 nM. Moreover, in assay [8], the GI50 is 622 ± 208 nM.
As to `COc1nc(C)c(-c2ccnc(Nc3ccc(N4CCN(C)CC4)cn3)n2)s1` [Compound 19, 4-(2-methoxy-4-methylthiazol-5-yl)-N-(5-(4-methylpiperazin-1-yl)pyridin-2-yl)pyrimidin-2-amine], the Ki in assay [1] was more than 5000 nM; in assay [2], 3650 nM; in assay [3] it was 310 nM; in assay [4] it was 935 nM; in assay [5], more than 5000 nM; in assay [6], 4760 nM. The concentration for 50% growth inhibition (GI50) was 3520 ± 1040 nM in assay [7] and more than 10000 nM in assay [8].
Turning to `Cc1nc(N(C)C)sc1-c1ccnc(Nc2ccc(N3CCN(C)CC3)cn2)n1` [Compound 45, N,N,4-trimethyl-5-(2-((5-(4-methylpiperazin-1-yl)pyridin-2-yl)amino)pyrimidin-4-yl)thiazol-2-amine], the Ki in assay [1] is more than 5000 nM; in assay [2], 1430 nM; in assay [3], 30 nM; in assay [4], 154 nM; in assay [5], more than 5000 nM; in assay [6] it was more than 5000 nM. In addition, the 50% growth inhibitory concentration (GI50) in assay [7] was found to be 92 ± 4 nM; in assay [8], 2100 ± 787 nM.
With `CNc1nc(C)c(-c2nc(Nc3ccc(N4CCN(Cc5ccccc5)CC4)cn3)ncc2C#N)s1` [Compound 40, 2-((5-(4-benzylpiperazin-1-yl)pyridin-2-yl)amino)-4-(4-methyl-2-(methylamino)thiazol-5-yl)pyrimidine-5-carbonitrile], the Ki was more than 5000 nM in assay [1]; more than 5000 nM in assay [2]; 16 nM in assay [3]; 36 nM in assay [4]; more than 5000 nM in assay [5]; 999 nM in assay [6]. Moreover, the GI50 in assay [7] came to 84 ± 8 nM.
Take `CNc1nc(C)c(-c2nc(Nc3ccc(N4CCOCC4)cn3)ncc2C#N)s1` [Compound 37, 4-(4-methyl-2-(methylamino)thiazol-5-yl)-2-((5-morpholinopyridin-2-yl)amino)pyrimidine-5-carbonitrile]: the Ki in assay [1] was more than 5000 nM; in assay [2], 201 nM; in assay [3] it was 4 nM; in assay [4], 64 nM; in assay [5], more than 5000 nM; in assay [6], more than 5000 nM. In addition, the GI50 in assay [7] is 465 ± 129 nM.
Regarding `CNc1nc(C)c(-c2nc(Nc3ccc(N4CCN(Cc5ccccc5)CC4)cc3)ncc2C#N)s1` [Compound 42, 2-((4-(4-benzylpiperazin-1-yl)phenyl)amino)-4-(4-methyl-2-(methylamino)thiazol-5-yl)pyrimidine-5-carbonitrile], the Ki in assay [1] is 89 nM; in assay [2], 17 nM; in assay [3] it was 1 nM; in assay [4] it was 36 nM; in assay [5] it was 101 nM; in assay [6], 34 nM. Besides, the GI50 in assay [7] was 37 ± 6 nM.
A word on the remaining activity: it is the share of the control activity or signal that is left under treatment. Regarding `CNc1nc(C)c(-c2nc(Nc3ccc(N4CCN(C)CC4)cn3)ncc2C#N)s1` [Compound 30, 4-(4-methyl-2-(methylamino)thiazol-5-yl)-2-((5-(4-methylpiperazin-1-yl)pyridin-2-yl)amino)pyrimidine-5-carbonitrile], the remaining activity at 10 µM in assay [1] worked out at 66%; in assay [2], 36%; in assay [5], 43%; in assay [6] it was 9%. The Ki is 4 nM in assay [3] and 32 nM in assay [4]. In addition, in assay [7], the concentration for 50% growth inhibition (GI50) was 56 ± 4 nM.
In the case of `CNc1nc(C)c(-c2nc(Nc3ccc(N4CCNCC4)cn3)ncc2C#N)s1` [Compound 27, 4-(4-methyl-2-(methylamino)thiazol-5-yl)-2-((5-(piperazin-1-yl)pyridin-2-yl)amino)pyrimidine-5-carbonitrile], the remaining activity at 10 µM came to 56% in assay [1], 34% in assay [2], 39% in assay [5] and 11% in assay [6]. In addition, the Ki in assay [3] was 1 nM; in assay [4], 40 nM. Besides, the GI50 in assay [7] came out at 14 ± 6 nM.
For the compound `CNc1nc(C)c(-c2ccnc(Nc3ccc(N4CCN(Cc5ccccc5)CC4)cn3)n2)s1` [Compound 39, 5-(2-((5-(4-benzylpiperazin-1-yl)pyridin-2-yl)amino)pyrimidin-4-yl)-N,4-dimethylthiazol-2-amine], the Ki was more than 5000 nM in assay [1]; more than 5000 nM in assay [2]; 169 nM in assay [3]; 2710 nM in assay [4]; more than 5000 nM in assay [5]; more than 5000 nM in assay [6]. For the same compound, the GI50 in assay [7] is 45900 ± 2520 nM.
For the compound `CNc1nc(C)c(-c2ccnc(Nc3ccc(N4CCNCC4)cn3)n2)s1` [Compound 26, N,4-dimethyl-5-(2-((5-(piperazin-1-yl)pyridin-2-yl)amino)pyrimidin-4-yl)thiazol-2-amine], the Ki in assay [1] is more than 5000 nM; in assay [2], 889 nM; in assay [3], 6 nM; in assay [4], 114 nM; in assay [5], more than 5000 nM; in assay [6], 2850 nM. Also, in assay [7], the GI50 came out at 259 ± 241 nM.
As for `CNc1nc(C)c(-c2ccnc(Nc3ccc(N4CCOCC4)cn3)n2)s1` [Compound 36, N,4-dimethyl-5-(2-((5-morpholinopyridin-2-yl)amino)pyrimidin-4-yl)thiazol-2-amine], the Ki is more than 5000 nM in assay [1]; 459 nM in assay [2]; 20 nM in assay [3]; 610 nM in assay [4]; more than 5000 nM in assay [5]; more than 5000 nM in assay [6]. Also, in assay [7], the GI50 amounted to 643 ± 18 nM.
For `CNc1nc(C)c(-c2ccnc(Nc3ccc(N4CCN(Cc5ccccc5)CC4)cc3)n2)s1` [Compound 41, 5-(2-((4-(4-benzylpiperazin-1-yl)phenyl)amino)pyrimidin-4-yl)-N,4-dimethylthiazol-2-amine], the Ki in assay [1] is 133 nM; in assay [2] it was 37 nM; in assay [3] it was 6 nM; in assay [4], 225 nM; in assay [5] it was 67 nM; in assay [6], 117 nM. The GI50 in assay [7] turned out to be 38 ± 6 nM.
